# Data as given in ChEMBL document CHEMBL4715723, “Discovery and development of benzo-[1,2,4]-triazolo-[1,4]-oxazepine GPR142 agonists for the treatment of diabetes” (Bioorg Med Chem Lett, 2016).
# Legend:
# [1] = target: T1, Probable G-protein coupled receptor 142 (Homo sapiens, UniProt Q7Z601); assay: Agonist activity at human GPR142 expressed in CHO cells measured for 3 mins by Fluo-4M dye based FLIPR assay; format: cell-based; conditions: read-out: IC50 (the source's name)
# T1 sequence (Q7Z601 whole entry): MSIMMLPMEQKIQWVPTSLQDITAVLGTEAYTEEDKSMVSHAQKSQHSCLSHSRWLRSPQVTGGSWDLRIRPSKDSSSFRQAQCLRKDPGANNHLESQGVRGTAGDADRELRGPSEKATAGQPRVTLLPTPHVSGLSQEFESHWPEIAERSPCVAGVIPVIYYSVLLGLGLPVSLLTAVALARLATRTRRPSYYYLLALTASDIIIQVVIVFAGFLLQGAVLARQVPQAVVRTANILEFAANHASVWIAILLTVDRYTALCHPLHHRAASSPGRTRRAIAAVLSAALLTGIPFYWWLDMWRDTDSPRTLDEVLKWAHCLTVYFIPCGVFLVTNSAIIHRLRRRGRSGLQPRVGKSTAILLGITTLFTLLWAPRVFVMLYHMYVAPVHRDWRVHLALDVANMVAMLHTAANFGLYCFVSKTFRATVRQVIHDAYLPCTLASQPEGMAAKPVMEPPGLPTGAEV
# [2] = target: T2, Probable G-protein coupled receptor 142 (Mus musculus, UniProt Q7TQN9); assay: Agonist activity at mouse GPR142 expressed in CHO cells measured for 3 mins by Fluo-4M dye based FLIPR assay; format: cell-based; conditions: read-out: IC50 (the source's name)
# T2 sequence (Q7TQN9 whole entry): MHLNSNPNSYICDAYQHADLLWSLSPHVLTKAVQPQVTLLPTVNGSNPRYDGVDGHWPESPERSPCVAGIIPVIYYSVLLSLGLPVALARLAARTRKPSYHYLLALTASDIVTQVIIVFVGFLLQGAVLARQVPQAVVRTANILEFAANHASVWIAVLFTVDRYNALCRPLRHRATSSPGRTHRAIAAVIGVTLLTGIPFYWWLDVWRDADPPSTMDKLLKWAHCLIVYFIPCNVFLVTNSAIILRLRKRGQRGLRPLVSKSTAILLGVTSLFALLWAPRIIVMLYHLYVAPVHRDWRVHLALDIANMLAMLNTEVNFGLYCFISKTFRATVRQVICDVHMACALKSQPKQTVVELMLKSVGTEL
# Cytochrome P450 2C9 = Cytochrome P450 2C9 (Homo sapiens, UniProt P11712); assay: Inhibition of human liver microsomes CYP2C9 using diclofenac as substrate by MUX-MS/MS analysis; format: ADME, Microsome
# Cytochrome P450 2D6 = Cytochrome P450 2D6 (Homo sapiens, UniProt P10635); assay: Inhibition of human liver microsomes CYP2D6 using dextromethorphan as substrate by MUX-MS/MS analysis; format: ADME, Microsome
# Cytochrome P450 3A4 = Cytochrome P450 3A4 (Homo sapiens, UniProt P08684); assay: Inhibition of human liver microsomes CYP3A4 using testosterone as substrate by MUX-MS/MS analysis; format: ADME, Microsome
# [3] = target: Voltage-gated inwardly rectifying potassium channel KCNH2 (Homo sapiens, UniProt Q12809); assay: Inhibition of human ERG expressed in HEK293 cells assessed as reduction in S35-MK-0499 binding; format: cell-based
# [4] = Clearance in rat at 2 mg/kg, po or 1 mg/kg, iv; format: ADME, organism-based; conditions: in vivo
# [5] = Half life in rat at 2 mg/kg, po or 1 mg/kg, iv; format: ADME, organism-based; conditions: in vivo
# [6] = Volume of distribution at steady state in rat at 2 mg/kg, po or 1 mg/kg, iv; format: ADME, organism-based; conditions: in vivo, read-out: Vdss
# [7] = Oral bioavailability in rat at 2 mg/kg; format: ADME, organism-based; conditions: in vivo
# [8] = Protein binding in rat plasma assessed as unbound fraction; format: ADME, cell-free
# Voltage-gated inwardly rectifying potassium channel KCNH2, sequence (Q12809 whole entry): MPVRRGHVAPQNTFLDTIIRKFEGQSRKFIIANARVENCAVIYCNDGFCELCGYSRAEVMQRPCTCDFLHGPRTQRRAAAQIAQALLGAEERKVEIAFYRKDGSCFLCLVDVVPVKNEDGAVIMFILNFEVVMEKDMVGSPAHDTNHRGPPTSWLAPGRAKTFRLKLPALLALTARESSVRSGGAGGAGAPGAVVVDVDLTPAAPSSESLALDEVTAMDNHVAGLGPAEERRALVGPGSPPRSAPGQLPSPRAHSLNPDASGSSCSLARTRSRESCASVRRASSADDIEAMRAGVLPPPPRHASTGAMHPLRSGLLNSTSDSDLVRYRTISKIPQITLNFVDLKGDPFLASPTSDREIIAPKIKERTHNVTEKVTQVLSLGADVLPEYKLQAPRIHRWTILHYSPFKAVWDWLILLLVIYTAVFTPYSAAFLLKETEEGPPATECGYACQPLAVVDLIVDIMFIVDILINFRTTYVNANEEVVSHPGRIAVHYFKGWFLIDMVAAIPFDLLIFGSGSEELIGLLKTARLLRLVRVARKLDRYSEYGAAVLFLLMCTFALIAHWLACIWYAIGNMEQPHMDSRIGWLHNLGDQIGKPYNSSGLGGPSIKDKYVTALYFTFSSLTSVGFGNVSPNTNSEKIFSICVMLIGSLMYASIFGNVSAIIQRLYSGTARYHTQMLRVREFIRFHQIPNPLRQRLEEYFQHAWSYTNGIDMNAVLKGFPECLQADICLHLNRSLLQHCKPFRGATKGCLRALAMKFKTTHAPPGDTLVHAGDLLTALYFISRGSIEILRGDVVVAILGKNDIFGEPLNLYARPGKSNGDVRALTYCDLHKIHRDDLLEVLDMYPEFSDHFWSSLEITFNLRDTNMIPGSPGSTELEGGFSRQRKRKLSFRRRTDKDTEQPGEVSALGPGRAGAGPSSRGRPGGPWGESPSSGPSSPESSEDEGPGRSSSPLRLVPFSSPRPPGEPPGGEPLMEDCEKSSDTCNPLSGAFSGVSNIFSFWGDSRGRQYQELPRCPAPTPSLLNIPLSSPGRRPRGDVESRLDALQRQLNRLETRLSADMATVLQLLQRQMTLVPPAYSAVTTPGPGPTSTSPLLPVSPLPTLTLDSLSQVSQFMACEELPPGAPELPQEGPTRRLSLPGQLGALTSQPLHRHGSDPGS
# Cytochrome P450 2D6, sequence (P10635 whole entry): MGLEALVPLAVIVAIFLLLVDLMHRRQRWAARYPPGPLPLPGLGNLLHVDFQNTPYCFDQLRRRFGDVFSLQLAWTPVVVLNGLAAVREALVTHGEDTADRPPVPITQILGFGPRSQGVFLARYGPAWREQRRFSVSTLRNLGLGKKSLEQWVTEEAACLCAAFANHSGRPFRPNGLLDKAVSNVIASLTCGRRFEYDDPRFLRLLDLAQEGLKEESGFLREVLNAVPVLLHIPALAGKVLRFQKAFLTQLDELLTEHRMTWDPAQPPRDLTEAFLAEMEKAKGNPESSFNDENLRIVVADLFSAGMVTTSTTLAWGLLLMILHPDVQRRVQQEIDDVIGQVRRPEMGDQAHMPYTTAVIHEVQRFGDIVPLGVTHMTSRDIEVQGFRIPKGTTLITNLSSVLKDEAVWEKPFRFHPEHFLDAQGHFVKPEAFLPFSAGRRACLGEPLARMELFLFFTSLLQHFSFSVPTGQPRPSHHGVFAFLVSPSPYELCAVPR
# Cytochrome P450 3A4, sequence (P08684 whole entry): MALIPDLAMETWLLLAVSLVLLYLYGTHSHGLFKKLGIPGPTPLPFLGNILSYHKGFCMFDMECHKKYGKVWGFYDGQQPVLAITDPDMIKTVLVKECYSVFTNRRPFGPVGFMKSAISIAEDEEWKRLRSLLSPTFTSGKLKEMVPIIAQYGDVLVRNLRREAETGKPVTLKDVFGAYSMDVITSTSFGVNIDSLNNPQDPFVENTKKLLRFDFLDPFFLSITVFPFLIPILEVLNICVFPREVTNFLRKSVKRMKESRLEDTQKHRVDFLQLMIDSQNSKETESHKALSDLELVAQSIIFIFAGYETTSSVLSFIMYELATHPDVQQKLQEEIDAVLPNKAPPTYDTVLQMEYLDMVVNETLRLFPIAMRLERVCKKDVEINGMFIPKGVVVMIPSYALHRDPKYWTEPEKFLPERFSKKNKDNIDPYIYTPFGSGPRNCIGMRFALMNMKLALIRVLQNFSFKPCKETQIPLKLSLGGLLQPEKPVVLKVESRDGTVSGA
# Cytochrome P450 2C9, sequence (P11712 whole entry): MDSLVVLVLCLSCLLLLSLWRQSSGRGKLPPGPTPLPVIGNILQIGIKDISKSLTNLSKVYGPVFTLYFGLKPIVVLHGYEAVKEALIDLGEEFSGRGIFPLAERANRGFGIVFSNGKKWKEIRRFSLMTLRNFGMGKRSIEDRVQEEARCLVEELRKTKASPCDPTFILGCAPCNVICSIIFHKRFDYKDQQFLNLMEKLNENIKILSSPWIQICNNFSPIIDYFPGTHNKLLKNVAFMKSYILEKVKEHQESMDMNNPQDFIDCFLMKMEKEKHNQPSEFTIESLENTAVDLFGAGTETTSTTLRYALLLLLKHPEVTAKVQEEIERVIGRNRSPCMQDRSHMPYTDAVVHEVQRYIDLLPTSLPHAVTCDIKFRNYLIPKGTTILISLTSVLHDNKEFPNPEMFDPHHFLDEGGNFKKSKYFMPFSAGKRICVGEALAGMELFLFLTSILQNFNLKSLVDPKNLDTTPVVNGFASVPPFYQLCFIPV
structure (smiles),measurement,setting,value
COc1cccc(NC(=O)N2CCOc3ccc(-c4ccncc4C)cc3C2)c1,EC50,[1],394 nM
same,EC50,[2],1180 nM
COc1cccc(NC(=O)N2CCOc3ccc(-c4ccnc(OC)c4)cc3C2)c1,EC50,[1],2800 nM
same,EC50,[2],2570 nM
O=C(Nc1ccc(Cl)c(Cl)c1)N1CCc2ccc(-c3ccncc3)cc21,EC50,[1],> 20000 nM
same,EC50,[2],2950 nM
Cc1cc(-c2ccc3c(c2)-c2nnc(Nc4cccc(C(F)(F)F)c4)n2CCO3)ccn1,IC50,Cytochrome P450 2C9,1960 nM
same,IC50,Cytochrome P450 2D6,326 nM
same,IC50,Cytochrome P450 3A4,48300 nM
same,IC50,[3],388 nM
same,EC50,[1],63 nM
N#Cc1cccc(NC(=O)N2CCOc3ccc(-c4ccnc(N)c4)cc3C2)c1,EC50,[1],810 nM
same,EC50,[2],448 nM
Cc1cc(-c2ccc3c(c2)-c2nnc(Oc4ccccc4OC(F)(F)F)n2CCO3)ccn1,IC50,Cytochrome P450 2C9,26100 nM
same,IC50,Cytochrome P450 2D6,8650 nM
same,IC50,Cytochrome P450 3A4,> 50000 nM
same,IC50,[3],2840 nM
same,EC50,[1],89 nM
COc1ccccc1NC(=O)N1CCOc2ccc(-c3ccncc3)cc2C1,EC50,[1],517 nM
same,EC50,[2],92 nM
O=C(Nc1cccc(Oc2ccccc2)c1)N1CCOc2ccc(-c3ccncc3)cc2C1,EC50,[1],1720 nM
same,EC50,[2],146 nM
COc1cccc(NC(=O)N2CCOc3ccc(-c4ccnc(C)c4)cc3C2)c1,EC50,[1],374 nM
COc1ccc(NC(=O)N2CCOc3ccc(-c4ccncc4)cc3C2)cc1,EC50,[1],> 20000 nM
same,EC50,[2],> 20000 nM
O=C(Nc1cccc(C(F)(F)F)c1)N1CCOc2ccc(-c3ccncc3)cc2C1,EC50,[1],158 nM
same,EC50,[2],110 nM
O=C(Nc1ccc(Cl)c(Cl)c1)N1CCc2ccc(-c3ccncc3)cc2C1,EC50,[1],1850 nM
same,EC50,[2],1050 nM
COc1cccc(NC(=O)N2CCOc3ccc(-c4ccnc5ccccc45)cc3C2)c1,EC50,[1],962 nM
same,EC50,[2],216 nM
O=C(Nc1cccc(Cl)c1F)N1CCOc2ccc(-c3ccncc3)cc2C1,EC50,[1],163 nM
same,EC50,[2],59 nM
COc1cccc(NC(=O)N2CCOc3ccc(-c4ccncc4OC)cc3C2)c1,EC50,[1],187 nM
same,EC50,[2],486 nM
O=C(Nc1ccc(Cl)c(Cl)c1)N1CCCc2ccc(-c3ccncc3)cc21,EC50,[1],> 20000 nM
same,EC50,[2],> 20000 nM
O=C(Nc1cccc(-c2ccccc2)c1)N1CCOc2ccc(-c3ccncc3)cc2C1,EC50,[1],343 nM
same,EC50,[2],62 nM
Cc1cc(-c2ccc3c(c2)-c2nnc(Nc4cccc(Cl)c4)n2CCO3)ccn1,IC50,Cytochrome P450 2C9,3440 nM
same,IC50,Cytochrome P450 2D6,792 nM
same,IC50,Cytochrome P450 3A4,11800 nM
same,clearance,[4],7.8 mL/min/kg
same,half-life,[5],2.5 h
same,Vd,[6],1.9 L/kg
same,bioavailability,[7],40%
same,fraction unbound,[8],0.0337
Cc1cc(-c2ccc3c(c2)-c2nnc(Nc4cccc(OC(F)(F)F)c4)n2CCO3)ccn1,IC50,Cytochrome P450 2C9,1390 nM
same,IC50,Cytochrome P450 2D6,1720 nM
same,IC50,Cytochrome P450 3A4,> 50000 nM
same,IC50,[3],236 nM
same,EC50,[1],45 nM
same,clearance,[4],11 mL/min/kg
same,half-life,[5],2 h
same,Vd,[6],1.9 L/kg
same,fraction unbound,[8],0.0949
O=C(Nc1ccccc1F)N1CCOc2ccc(-c3ccncc3)cc2C1,EC50,[1],13100 nM
same,EC50,[2],604 nM
COc1cccc(NC(=O)N2CCOc3ccc(-c4ccncn4)cc3C2)c1,EC50,[1],1600 nM
FC(F)(F)c1cccc(Nc2nnc3n2CCOc2ccc(-c4ccncc4)cc2-3)c1,IC50,Cytochrome P450 2C9,531 nM
same,IC50,Cytochrome P450 2D6,782 nM
same,IC50,Cytochrome P450 3A4,516 nM
same,IC50,[3],557 nM
same,EC50,[1],48 nM
O=C(Cc1cccc(C(F)(F)F)c1)N1CCOc2ccc(-c3ccncc3)cc2C1,EC50,[1],1640 nM
same,EC50,[2],611 nM
Cc1cc(-c2ccc3c(c2)-c2nnc(Oc4ccccc4Cl)n2CCO3)ccn1,IC50,Cytochrome P450 2C9,> 50000 nM
same,IC50,Cytochrome P450 2D6,24300 nM
same,IC50,Cytochrome P450 3A4,> 50000 nM
same,IC50,[3],3510 nM
same,EC50,[1],102 nM
Cc1cc(-c2ccc3c(c2)-c2nnc(Oc4cccc(OC(F)(F)F)c4)n2CCO3)ccn1,IC50,Cytochrome P450 2C9,14300 nM
same,IC50,Cytochrome P450 2D6,1950 nM
same,IC50,Cytochrome P450 3A4,> 50000 nM
same,IC50,[3],693 nM
same,EC50,[1],78 nM
O=C(Nc1ccccc1)N1CCOc2ccc(-c3ccncc3)cc2C1,EC50,[1],793 nM
same,EC50,[2],851 nM
CCCCN1CCN(C(=O)Nc2ccc(Cl)c(Cl)c2)Cc2cc(-c3ccncc3)ccc21,EC50,[1],> 20000 nM
same,EC50,[2],4500 nM
O=C(Nc1ccc(Cl)c(Cl)c1)N1CCCc2ccc(-c3ccncc3)cc2C1,EC50,[1],839 nM
same,EC50,[2],590 nM
COc1cccc(NC(=O)N2CCOc3ccc(-c4ccncc4)cc3C2)c1,EC50,[1],249 nM
same,EC50,[2],305 nM
Cc1cc(-c2ccc3c(c2)-c2nnc(Cc4cccc(Cl)c4)n2CCO3)ccn1,IC50,Cytochrome P450 2C9,1450 nM
same,IC50,Cytochrome P450 2D6,1010 nM
same,IC50,Cytochrome P450 3A4,1060 nM
same,IC50,[3],3860 nM
same,EC50,[1],593 nM
O=C(Nc1ccc(Cl)c(Cl)c1)N1CCNc2ccc(-c3ccncc3)cc2C1,EC50,[1],146 nM
same,EC50,[2],158 nM
N#Cc1cccc(NC(=O)N2CCOc3ccc(-c4ccncc4)cc3C2)c1,EC50,[1],80 nM
same,EC50,[2],79 nM
O=S(=O)(Cc1cccc(C(F)(F)F)c1)N1CCOc2ccc(-c3ccncc3)cc2C1,EC50,[1],2290 nM
same,EC50,[2],157 nM
O=C(Nc1ccc(F)c(Cl)c1)N1CCOc2ccc(-c3ccncc3)cc2C1,EC50,[1],132 nM
same,EC50,[2],613 nM
O=C(Nc1ccc(F)cc1)N1CCOc2ccc(-c3ccncc3)cc2C1,EC50,[1],1220 nM
same,EC50,[2],2610 nM
O=C(Nc1cccc(F)c1)N1CCOc2ccc(-c3ccncc3)cc2C1,EC50,[1],224 nM
same,EC50,[2],413 nM
O=C(Nc1ccc(Cl)c(Cl)c1)N1Cc2ccc(-c3ccncc3)cc2C1,EC50,[1],> 20000 nM
same,EC50,[2],> 20000 nM
N#Cc1cccc(NC(=O)N2CCOc3ccc(-n4ccnc4)cc3C2)c1,EC50,[1],110 nM
CN1CCN(C(=O)Nc2ccc(Cl)c(Cl)c2)Cc2cc(-c3ccncc3)ccc21,EC50,[1],> 20000 nM
same,EC50,[2],2570 nM
O=C(Nc1cccc(Cl)c1Cl)N1CCOc2ccc(-c3ccncc3)cc2C1,EC50,[1],708 nM
same,EC50,[2],157 nM
O=C(Nc1cccc(Cl)c1)N1CCOc2ccc(-c3ccncc3)cc2C1,EC50,[1],108 nM
same,EC50,[2],164 nM
same,clearance,[4],56.1 mL/min/kg
same,half-life,[5],0.66 h
same,Vd,[6],2 L/kg
same,bioavailability,[7],1%
same,fraction unbound,[8],0.0086
COc1cccc(N(C)C(=O)N2CCOc3ccc(-c4ccncc4)cc3C2)c1,EC50,[1],> 20000 nM
same,EC50,[2],> 20000 nM
Cc1cc(-c2ccc3c(c2)-c2nnc(Oc4cccc(Cl)c4)n2CCO3)ccn1,IC50,Cytochrome P450 2C9,> 50000 nM
same,IC50,Cytochrome P450 2D6,7020 nM
same,IC50,Cytochrome P450 3A4,> 50000 nM
same,IC50,[3],931 nM
same,EC50,[1],58 nM
